The values that follow come from BindingDB's records for doi:10.1016/j.ejmech.2018.09.067 (University of Louvain, 2018).

Experiment [1] in a line: Displacement of [3H]muscimol from recombinant human GABAalpha1beta2gamma2 measured after 120 mins by scintillation counting method. A general note: Displacement assays read how much labelled ligand stays bound in the presence of the test substance.
A short description of experiment [2]: Inhibition of human MAOA using kynuramine as substrate after 20 mins by spectrophotometric analysis.
Experiment [3] is described as follows: Inhibition of human recombinant PDE3A using [3H]cAMP after 20 mins by scintillation counting analysis.
The nature of experiment [4]: Displacement of [125I]pirenzepine from human recombinant M1 receptor after 60 mins by scintillation counting analysis.
Experiment [5] is described as follows: Inhibition of human recombinant COX1 using arachidonic acid as substrate after 3 mins by fluorimetric analysis.
The nature of experiment [6]: Inhibition of human recombinant ACE using Abz-FRK(Dnp)-P-OH as substrate after 30 mins by fluorimetric analysis.
The nature of experiment [7]: Displacement of [3H]8-OH-DPAT from recombinant human 5-HT1A receptor after 60 mins by scintillation counting analysis.
A short description of experiment [8]: Inhibition of human recombinant full-length LDHA using sodium pyruvate as substrate after 60 mins by resazurin dye-based assay. In general terms: Alamar Blue is a resazurin reagent that responds to reducing activity.
Experiment [9] can be described thus: Inhibition of human recombinant acetylcholinesterase using acetylthiocholine as substrate after 30 mins by spectrophotometric analysis.
Experiment [10] is described as follows: Inhibition of human IDO using L-tryptophan as substrate after 30 mins by Ehrlich's reagent based assay.
A short description of experiment [11]: Displacement of [3H]CP 55940 from human recombinant CB1 receptor after 120 mins by scintillation counting analysis.
Experiment [12] can be described thus: Displacement of [3H]WY 14643 from human recombinant PPARalpha receptor at 10 uM after 120 mins by scintillation counting analysis relative to control.
Experiment [13] is described as follows: Inhibition of human recombinant Lck using Ulight-Poly GAT[EAY(1:1:1)]n as substrate after 10 mins by LANCE analysis.
A short description of experiment [14]: Inhibition of human carbonic anhydrase 2 using 4-nitrophenyl acetate as substrate after 20 mins by spectrophotometric analysis.
Experiment [15] can be described thus: Inhibition of human thrombin using Z-GPR-AMC as substrate after 30 mins by fluorimetric analysis.
Experiment [16] is described as follows: Inhibition of human recombinant C-terminal His-tagged PHGDH (1 to 533 residues) expressed in Escherichia coli using 3-phosphoglycerate as substrate.
Experiment [17] can be described thus: Inhibition of human recombinant Arg1 using L-arginine as substrate after 5 mins in presence of [guanidino-14C]-L-arginine by liquid scintillation counting analysis.

As usually defined, the IC50 is the point on the concentration scale where inhibition reaches its midpoint.

As to `O=C(NNC(=S)Nc1ccc(Cl)c(Cl)c1)c1ccccc1O`, the IC50 in experiment [1] came to 75 nM; in experiment [2], 40 nM; in experiment [3], 490 nM; in experiment [4], 22 nM; in experiment [5], 8 nM; in experiment [6], 0.7 nM. Moreover, the IC50 in experiment [7] came out at 0.6 nM; in experiment [8], 577 µM; in experiment [9], 520 nM; in [10], 37 µM; in experiment [11], 0.58 nM; in experiment [12] it was 52 nM. The IC50 in [13] was 31 nM; in experiment [14] it was 29 nM; in experiment [15] it was 0.103 nM; in [16], 8.7 µM; in experiment [17], 13 µM; in the experiment “Inhibition of human MAGL”, 363 nM.
